According to ChEMBL document CHEMBL3045843, “Binding of Nicotinoids and the Related Compounds to the Insect Nicotinic Acetyicholine Receptor” (J Pestic Sci, 1992):

Tests used:
[1] = biological target: T1, Nicotinic acetylcholine receptor alpha 5 subunit (Musca domestica, UniProt A9XFY4); test: Displacement of [3H]alpha-bungarotoxin from nAChR in Musca domestica (house fly) head membrane after 60 min by scintillation counting
T1 sequence (A9XFY4 whole entry): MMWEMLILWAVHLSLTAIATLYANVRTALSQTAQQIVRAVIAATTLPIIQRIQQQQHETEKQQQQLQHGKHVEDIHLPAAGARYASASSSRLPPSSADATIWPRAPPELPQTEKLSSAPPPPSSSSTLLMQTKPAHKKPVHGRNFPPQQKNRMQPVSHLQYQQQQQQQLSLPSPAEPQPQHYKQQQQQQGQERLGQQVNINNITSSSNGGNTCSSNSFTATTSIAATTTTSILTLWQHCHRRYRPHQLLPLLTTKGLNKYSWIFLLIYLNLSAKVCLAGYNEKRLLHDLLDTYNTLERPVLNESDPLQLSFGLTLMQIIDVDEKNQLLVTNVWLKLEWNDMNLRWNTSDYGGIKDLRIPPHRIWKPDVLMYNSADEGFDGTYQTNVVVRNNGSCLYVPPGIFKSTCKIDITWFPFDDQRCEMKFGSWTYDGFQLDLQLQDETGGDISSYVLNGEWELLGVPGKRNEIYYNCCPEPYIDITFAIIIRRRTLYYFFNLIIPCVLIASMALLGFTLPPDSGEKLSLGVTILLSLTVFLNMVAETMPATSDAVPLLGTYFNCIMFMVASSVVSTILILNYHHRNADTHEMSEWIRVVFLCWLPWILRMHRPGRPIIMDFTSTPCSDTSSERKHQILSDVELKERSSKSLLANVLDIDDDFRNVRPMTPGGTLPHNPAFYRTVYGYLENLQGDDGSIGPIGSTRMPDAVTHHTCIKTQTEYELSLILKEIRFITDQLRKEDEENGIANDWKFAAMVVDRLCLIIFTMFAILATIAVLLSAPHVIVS

[2] = Displacement of [3H]alpha-bungarotoxin from nAChR in honeybee head membrane after 60 min by scintillation counting; assay type: cell membranes, Apis mellifera
Musca domestica = test: Insecticidal activity against Musca domestica (house fly) assessed as mortality relative to nicotine; assay type: functional
Acetylcholinesterase = Acetylcholinesterase (Musca domestica, UniProt Q7YWJ9); test: Inhibition of Musca domestica (house fly) acetylcholinesterase
[3] = Disocciation constant, pKa of the compound at 37 degC; assay type: physicochemical
[4] = Disocciation constant, pKa of the compound at 25 degC; assay type: physicochemical

Sequence of Acetylcholinesterase (Q7YWJ9 whole entry): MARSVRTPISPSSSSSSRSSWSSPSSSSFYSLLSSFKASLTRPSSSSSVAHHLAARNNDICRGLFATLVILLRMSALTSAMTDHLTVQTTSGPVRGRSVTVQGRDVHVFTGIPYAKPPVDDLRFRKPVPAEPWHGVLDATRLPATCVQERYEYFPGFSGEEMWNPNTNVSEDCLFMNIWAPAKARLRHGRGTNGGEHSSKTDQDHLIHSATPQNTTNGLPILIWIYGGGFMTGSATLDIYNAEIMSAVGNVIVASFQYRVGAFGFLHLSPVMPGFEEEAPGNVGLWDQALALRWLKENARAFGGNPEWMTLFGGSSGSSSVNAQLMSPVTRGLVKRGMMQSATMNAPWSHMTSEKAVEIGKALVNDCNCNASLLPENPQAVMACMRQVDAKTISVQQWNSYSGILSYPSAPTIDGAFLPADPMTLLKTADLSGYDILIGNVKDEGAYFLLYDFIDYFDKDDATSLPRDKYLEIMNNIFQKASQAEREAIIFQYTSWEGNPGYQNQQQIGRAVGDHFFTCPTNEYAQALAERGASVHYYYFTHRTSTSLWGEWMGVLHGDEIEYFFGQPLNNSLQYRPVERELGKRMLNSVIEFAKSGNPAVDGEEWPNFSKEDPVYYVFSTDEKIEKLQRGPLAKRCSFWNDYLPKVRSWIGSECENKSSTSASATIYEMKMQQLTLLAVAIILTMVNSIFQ

| SMILES | Ki [1] [µM] | Ki [2] [µM] | fold change (FC) (Musca domestica) | IC50 (Acetylcholinesterase) [µM] | pKa [3] | pKa [4] |
| --- | --- | --- | --- | --- | --- | --- |
| CN(C)Cc1ccncc1 | > 1000 | > 1000 |  |  |  |  |
| CCN(CC)Cc1ccccn1 |  |  | 0.1 | 3000 | 8.42 |  |
| CCN(CC)Cc1ccncc1 |  |  | 0.1 | 7700 | 7.96 |  |
| CN(C)Cc1ccccn1 | > 1000 | > 1000 |  |  |  |  |
| CCNCc1cccnc1 | 380 | 289 | 0.34 | 7100 | 8.96 |  |
| CCCNCc1cccnc1 | > 1000 | > 1000 | 0.15 | 17000 | 8.38 |  |
| CC(C)NCc1cccnc1 | 226 | 103 | 0.46 | 3900 | 8.46 |  |
| CCCCNCc1cccnc1 | > 1000 | 406 | 0.16 | 23000 | 8.66 |  |
| CCN(CC)Cc1cccnc1 | 450 | 155 | 0.46 | 890 | 8.12 |  |
| CCCN(CCC)Cc1cccnc1 | 220 | 200 | 0.16 | 1700 | 8.13 |  |
| CCCCN(CCCC)Cc1cccnc1 | > 1000 | 175 | 0.28 | 2800 | 8.08 |  |
| c1cncc(CN2CCCCC2)c1 | 67.6 | 48.7 | 0.79 | 1500 | 8.16 |  |
| c1cncc(CN2CCOCC2)c1 | > 1000 | > 1000 | 0.04 |  | 5.76 |  |
| CCOc1ccccc1Cn1nc(OC)oc1=O | > 100 | > 100 |  |  |  |  |
| COc1nn(-c2ccc(C)cc2OC)c(=O)o1 | > 1000 | > 1000 |  |  |  |  |
| N#C/N=C1/NCCN1/C=N/c1ccccc1 | > 500 | > 500 |  |  |  |  |
| O=[N+]([O-])C(/C=N/c1ccccc1)=C1NCCN1 | > 500 | > 500 |  |  |  |  |
| CN(C)Cc1cccnc1 | 201 | 208 | 0.45 | 5100 | 7.76 |  |
| CNCc1cccnc1 | 600 | 377 | 0.3 | 31000 | 8.3 |  |
| c1cncc(C2CCCCN2)c1 (racemic) [DL-ANABASINE] |  |  | 0.6 |  |  |  |
| CN1CCC[C@H]1c1cccnc1 (racemic) [NICOTINE] |  |  | 1 | 620 |  |  |
| c1cncc([C@@H]2CCCN2)c1 (racemic) [NORNICOTINE] | 8.77 | 7.61 | 0.3 | 9700 |  |  |
| O=[N+]([O-])C=C1NCCN1 [2-(NITROMETHYLENE)IMIDAZOLIDINE] | > 1000 | > 1000 |  |  |  |  |
| c1cncc([C@@H]2CCCCN2)c1 [ANABASINE] |  |  |  |  | 8.48 | 8.7 |

| SMILES | Ki [1] [µM] | Ki [2] [µM] | fold change (FC) (Musca domestica) | IC50 (Acetylcholinesterase) [µM] | pKa [3] | pKa [4] |
| --- | --- | --- | --- | --- | --- | --- |
| COC(=O)C1=CCCN(C)C1 [ARECOLINE] | 516 | 240 |  |  |  |  |
| CN1[C@@H]2CC[C@H]1C[C@@H](OC(=O)C(CO)c1ccccc1)C2 (stereo partly drawn) [ATROPINE] | 32.5 | 26.3 |  |  |  |  |
| C[N+](C)(C)CCOC(N)=O [CARBACHOL] | 212 | 175 |  |  |  |  |
| CCC[C@H]1CCCCN1 [CONIINE] | > 1000 | 262 |  |  |  |  |
| CN1C(=O)CC[C@H]1c1cccnc1 [COTININE] | > 1000 | > 1000 | 0.03 |  |  | 4.5 |
| O=c1cccc2n1C[C@@H]1CNC[C@H]2C1 [CYTISINICLINE] | 1.23 | 0.65 |  |  |  |  |
| C[N+](C)(C)CCCCCCCCCC[N+](C)(C)C [DECAMETHONIUM] | 103 | 224 |  |  |  |  |
| C1=C(c2cccnc2)NCC1 [DIHYDRONICOTYRINE] | 1.92 | 1.27 | 2.6 | 350 | 7.21 | 7.4 |
| C[N+]1(C)CCN(c2ccccc2)CC1 [DIMETHYLPHENYLPIPERAZINIUM] | 86.3 | 49.5 |  |  |  |  |
| c1cncc(C2CCCCN2)c1 (stereo not drawn) [DL-ANABASINE] | 3.71 | 3.91 |  | 3900 |  |  |
| O=[N+]([O-])/N=C1\NCCN1Cc1ccc(Cl)nc1 [IMIDACLOPRID] | 7.47 | 2.53 |  |  |  |  |
| CN1[C@@H](CC(=O)c2ccccc2)CCC[C@H]1C[C@H](O)c1ccccc1 [LOBELINE] | 12.8 | 9.13 |  |  |  |  |
| CNC1(C)C2CCC(C2)C1(C)C (stereo not drawn) [MECAMYLAMINE] | > 1000 | 453 |  |  |  |  |
| c1cncc(C2=NCCC2)c1 [MYOSMINE] | > 1000 | > 1000 | 0.36 | 6800 | 5.23 | 5.5 |
| c1cncc(CN2CCCC2)c1 [N-(3-PYRIDYLMETHYL)PYRROLIDINE] | 16.4 | 14.3 | 0.43 | 1400 | 8.11 |  |
| CN(C)C1CSSC1 [NEREISTOXIN] | 187 | 254 |  |  |  |  |
| CN1CCC[C@H]1c1cccnc1 [NICOTINE] | 2.48 | 1.48 |  | 2600 | 7.66 | 7.9 |
| Cn1cccc1-c1cccnc1 [NICOTYRINE] | > 1000 | > 1000 | 0.18 | 2300 | 4.5 | 4.7 |
| c1cncc([C@@H]2CCCN2)c1 [NORNICOTINE] |  |  |  | 4200 | 8.76 | 9 |
| C[N+]1(CCCCC[N+]2(C)CCCC2)CCCC1 [PENTOLINIUM] | 108 | 72.2 |  |  |  |  |
| CN1CCC[C@@H]1c1cccnc1 [R-NICOTINE] | 59.9 | 43.7 | 1 | 230 |  |  |
| O=C1N(Cc2ccccc2)C2C[S+]3CCCC3C2N1Cc1ccccc1 (stereo not drawn) [TRIMETHAPHAN] | 2.75 | 5.79 |  |  |  |  |
| COc1cc2c3cc1Oc1cc(ccc1O)C[C@@H]1c4c(cc(OC)c(O)c4Oc4ccc(cc4)C[C@@H]3N(C)CC2)CC[N+]1(C)C [TUBOCURARINE] | 1.88 | 3.57 |  |  |  |  |
